Drawing on patent US10005768B2, “Carboxamide derivatives and use thereof” (Purdue Pharma L.P., priority 2013, dated 2018), this text covers IC50 for 28 molecules.

For orientation: IC50 means the concentration at which inhibition is half-maximal.

A value given as a limit tells only on which side of the number the result lay.

human Nav1.7, sequence (Q15858 other isoform, or with tags, fused parts or gaps): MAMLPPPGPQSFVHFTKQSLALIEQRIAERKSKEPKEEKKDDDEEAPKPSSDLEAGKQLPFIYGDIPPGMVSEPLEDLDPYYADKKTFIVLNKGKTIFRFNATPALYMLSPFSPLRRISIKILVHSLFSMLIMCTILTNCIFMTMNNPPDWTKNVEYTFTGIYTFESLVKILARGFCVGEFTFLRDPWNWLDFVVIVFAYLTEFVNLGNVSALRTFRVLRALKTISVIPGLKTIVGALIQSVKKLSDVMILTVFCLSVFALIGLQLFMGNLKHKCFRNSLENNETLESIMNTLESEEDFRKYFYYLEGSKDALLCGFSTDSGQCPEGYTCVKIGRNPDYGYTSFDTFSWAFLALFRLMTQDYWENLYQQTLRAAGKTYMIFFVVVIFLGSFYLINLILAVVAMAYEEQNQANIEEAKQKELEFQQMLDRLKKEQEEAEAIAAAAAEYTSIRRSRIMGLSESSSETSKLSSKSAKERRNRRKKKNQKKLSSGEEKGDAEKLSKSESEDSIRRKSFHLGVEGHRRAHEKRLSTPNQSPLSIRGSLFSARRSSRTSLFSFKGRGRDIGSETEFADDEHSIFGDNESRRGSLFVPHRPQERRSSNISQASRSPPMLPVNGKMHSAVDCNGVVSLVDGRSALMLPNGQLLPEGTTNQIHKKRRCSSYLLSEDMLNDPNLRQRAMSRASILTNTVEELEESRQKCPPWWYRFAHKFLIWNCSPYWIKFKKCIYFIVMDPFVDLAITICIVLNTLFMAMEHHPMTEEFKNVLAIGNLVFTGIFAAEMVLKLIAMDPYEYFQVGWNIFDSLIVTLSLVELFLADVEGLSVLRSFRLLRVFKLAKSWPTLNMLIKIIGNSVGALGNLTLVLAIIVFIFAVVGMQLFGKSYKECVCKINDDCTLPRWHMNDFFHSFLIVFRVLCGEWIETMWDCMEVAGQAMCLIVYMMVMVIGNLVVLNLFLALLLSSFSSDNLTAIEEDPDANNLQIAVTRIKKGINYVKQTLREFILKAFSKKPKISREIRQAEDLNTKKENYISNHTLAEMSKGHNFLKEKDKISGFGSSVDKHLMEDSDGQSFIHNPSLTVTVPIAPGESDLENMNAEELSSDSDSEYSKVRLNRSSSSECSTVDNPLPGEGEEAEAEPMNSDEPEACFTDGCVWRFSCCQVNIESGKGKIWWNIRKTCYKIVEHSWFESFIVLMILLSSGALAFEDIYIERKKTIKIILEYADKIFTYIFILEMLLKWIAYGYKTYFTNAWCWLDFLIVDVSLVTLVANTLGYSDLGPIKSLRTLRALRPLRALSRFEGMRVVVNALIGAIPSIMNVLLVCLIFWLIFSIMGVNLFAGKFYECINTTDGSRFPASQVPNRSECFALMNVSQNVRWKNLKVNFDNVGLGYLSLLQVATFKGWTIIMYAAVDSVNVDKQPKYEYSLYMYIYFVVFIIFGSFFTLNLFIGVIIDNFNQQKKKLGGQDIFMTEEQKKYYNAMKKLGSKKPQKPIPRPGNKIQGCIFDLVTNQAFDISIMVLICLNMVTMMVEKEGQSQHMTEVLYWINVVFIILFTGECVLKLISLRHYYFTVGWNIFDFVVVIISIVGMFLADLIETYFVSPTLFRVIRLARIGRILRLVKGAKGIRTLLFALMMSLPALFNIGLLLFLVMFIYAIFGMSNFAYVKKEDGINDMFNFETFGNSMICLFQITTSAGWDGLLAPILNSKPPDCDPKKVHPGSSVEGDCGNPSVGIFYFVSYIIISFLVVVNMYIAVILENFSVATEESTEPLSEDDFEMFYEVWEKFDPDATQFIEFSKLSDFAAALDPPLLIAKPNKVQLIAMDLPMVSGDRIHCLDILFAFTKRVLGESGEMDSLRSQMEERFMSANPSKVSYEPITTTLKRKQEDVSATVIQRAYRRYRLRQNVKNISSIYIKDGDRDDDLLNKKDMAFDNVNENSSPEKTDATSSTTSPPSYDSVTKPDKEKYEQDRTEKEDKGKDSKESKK

This experiment deals with human Nav1.7 (Homo sapiens (Human), UniProt Q15858). Briefly: FLIPR sodium dye assay (CoroNa Green AM Na+ dye, primary fluorescence assay). Conditions: recombinant Nav1.7/HEK293 cells. Format: cell-based. The protocol:
In vitro assays were performed in a recombinant cell line expressing cDNA encoding the alpha subunit (Nav1.7, SCN9a, PN1, NE) of human Nav1.7 (Accession No. NM_002977). The cell line was provided by investigators at Yale University (Cummins et al, J. Neurosci. 18(23): 9607-9619 (1998)). For dominant selection of the Nav1.7-expressing clones, the expression plasmid co-expressed the neomycin resistance gene. The cell line was constructed in the human embryonic kidney cell line, HEK293, under the influence of the CMV […] promoter, and stable clones were selected using limiting dilution cloning and antibiotic selection using the neomycin analogue, G418. Recombinant beta and gamma subunits were not introduced into this cell line. Additional cell lines expressing recombinant Nav1.7 cloned from other species can also be used, alone or in combination with various beta subunits, gamma subunits or chaperones.
Unless otherwise noted, cell culture reagents were purchased from Mediatech of Herndon, Va. The recombinant Nav1.7/HEK293 cells were routinely cultured in growth medium consisting of Dulbecco's […] essential medium containing 10% fetal bovine serum (FBS, Hyclone, Thermo Fisher Scientific, Logan, Utah), 100 U/mL penicillin, 100 μg/mL streptomycin, 2-4 mM L-glutamine, and […] G418. For natural, non-recombinant cell lines, the selective antibiotic was omitted, and additional media formulations can be applied as needed.
The final buffer consisted of 20 mM Hepes, pH 7.3, 1.261 mM CaCl2, 0.493 mM MgCl2, 0.407 mM Mg(SO)4, 5.33 mM KCl, 0.441 mM KH2PO4, 137 mM NaCl, 0.336 mM Na2HPO4 and […] D-glucose (Hanks et al., Proc. Soc. Exp. Biol. Med. 71:196 (1949)), and the simple formulation was typically the basic buffer throughout the assay (i.e., all wash and addition steps).
The fluorescence indicator used in the primary fluorescence assay was the cell permeant version of CoroNa™ Green (Invitrogen, Molecular Probes, Eugene, Oreg.), a dye that emits light in the fluorescence range (Harootunian et al., J. Biol. Chem. 264(32):19458-19467 (1989)). The intensity of this emission, but not the wavelength range, is increased when the dye is exposed to Na^+ ions, which it can bind with partial selectivity. Cells expressing Nav1.7 or other sodium channels were loaded with the CoroNa™ Green dye immediately in advance of the fluorescence assay, and then, after agonist stimulation, the mobilization of Na^+ ions was detected as the Na^+ ions flowed from the extracellular fluid into the cytoplasm through the activated sodium channel pores. The dye was stored in the dark as a lyophilized powder, and then an aliquot was dissolved immediately before the cell loading procedure, according to the instructions of the manufacturer, to a stock concentration of 10 mM in DMSO. It was then diluted in the assay buffer to a 4× concentrated working solution, so that the final concentration of dye in the cell loading buffer was 5 μM.
In the fluorescence assays, two agonists were used in combination, namely 1) veratridine; and 2) the venom from the yellow scorpion, Leiurus quinquestriatus hebraeus. Veratridine is an alkaloid small molecule that facilitates the capture of channel openings by inhibiting inactivation, and the scorpion venom is a natural preparation that includes peptide toxins selective for different subsets of voltage-gated sodium channels. These scorpion toxins inhibit the fast inactivation of their cognate target channels. Stock solutions of the agonists were prepared to 40 mM in DMSO (veratridine) and 1 mg/mL in dH2O (scorpion venom), and then diluted to make a 4× or 2× stock (depending on the particular assay) in assay buffer, the final concentration being 100 μM (veratridine) and 10 μg/mL (scorpion venom). Both of the agonists were purchased from Sigma Aldrich, St. Louis, Mo.
Test compounds were dissolved in DMSO to yield 10 mM stock solutions. […]
With `OC[C@@H](O)c1cccc(-c2ccc(Oc3ccc(C(F)(F)F)cc3CN3CC[C@H](O)C3)cc2)n1` [compound 75, (S)-1-(6-(4-(2-(((S)-3-hydroxypyrrolidin-1-yl)methyl)-4-(trifluoromethyl)phenoxy)-phenyl)pyridin-2-yl)ethane-1,2-diol], the IC50 worked out at 0.972 ± 0.114 µM. Next, `CCN(CCN(C)C)Cc1cc(C(F)(F)F)ccc1Oc1ccc(-c2cccc(C(N)=O)n2)cc1` [compound 120, 6-(4-(2-(((2-(dimethylamino)ethyl)(ethyl)amino)methyl)-4-(trifluoromethyl)phenoxy)phenyl) picolinamide]: 0.578 ± 0.098 µM; `COc1ccc(-c2cc(C#N)ccc2Oc2ccc(-c3cccc(C(N)=O)n3)cc2)cn1` [compound 20, 6-(4-(4-cyano-2-(6-methoxypyridin-3-yl)phenoxy)phenyl)picolinamide]: 0.124 ± 0.016 µM. The same measure for `CC(C)(C)OC(=O)NC1CCN(Cc2cc(C(F)(F)F)ccc2Oc2ccc(-c3cccc(C(N)=O)n3)cc2)C1` (stereo not shown) [compound 47, tert-butyl (1-(2-(4-(6-carbamoylpyridin-2-yl)phenoxy)-5-(trifluoromethyl)-benzyl)pyrrolidin-3-yl)carbamate]: 0.949 ± 0.168 µM. Next, `N#Cc1cc(-c2cccc(C(N)=O)n2)ccc1Oc1ccc(F)cc1` [compound 89]: more than 20 µM; `NC(=O)c1cccc(-c2ccc(Oc3ccc(C(F)(F)F)c(CN4CC[C@H](O)C4)c3)cc2)n1` [compound 54, (S)-6-(4-(3-((3-hydroxy-pyrrolidin-1-yl)methyl)-4-(trifluoromethyl)phenoxy)-phenyl)picolinamide]: 0.366 ± 0.085 µM; `CC(c1cc(C(F)(F)F)ccc1Oc1ccc(-c2cccc(C(N)=O)n2)cc1)N1CCCC1` (stereo not shown) [compound 58, 6-(4-(2-(1-(pyrrolidin-1-yl)ethyl)-4-(trifluoromethyl)phenoxy)-phenyl)picolinamide]: 0.231 ± 0.008 µM. For `NC(=O)c1cccc(-c2ccc(Oc3ccc(C(F)(F)F)cc3-c3cccnc3)cc2)n1` [compound 29, 6-(4-(2-(pyridin-3-yl)-4-(trifluoromethyl)phenoxy)phenyl) picolinamide], the half-maximal inhibitory concentration (IC50) was 0.117 ± 0.036 µM. Next, `NC(=O)c1cccc(-c2ccc(Oc3ccc(C(F)(F)F)cc3CNCCc3ccc(S(N)(=O)=O)cc3)cc2)n1` [compound 32, 6-(4-(2-(((4-sulfamoylphenethyl)-amino)methyl)-4-(trifluoro-methyl)phenoxy)phenyl)picolin-amide]: 3.05 ± 0.942 µM; `CN(CCO)Cc1cc(C(F)(F)F)ccc1Oc1ccc(-c2cccc(C(N)=O)n2)cc1` [compound 52, 6-(4-(2-(((2-hydroxyethyl)-(methyl)amino)methyl)-4-(trifluoromethyl)phenoxy)phenyl) picolinamide]: 1.1 ± 0.107 µM; `NC(=O)c1cccc(-c2ccc(Oc3ccc(C(F)(F)F)cc3CN3CCC[C@@H]3CO)cc2)n1` [compound 42, (R)-6-(4-(2-((2-(hydroxyl-methyl)pyrrolidin-1-yl)methyl)-4-(trifluoromethyl)phenoxy)phenyl) picolinamide]: 1.17 ± 0.186 µM.

With `NC(=O)c1cccc(-c2ccc(Oc3ccc(C(F)(F)F)cc3CNCCN3CCNC3=O)cc2)n1` [compound 34, 6-(4-(2-(((2-(2-oxoimidazolidin-1-yl)ethyl)amino)methyl)-4-(trifluoromethyl)phenoxy)phenyl) picolinamide], the half-maximal inhibitory concentration (IC50) is 1.77 ± 0.57 µM. For `NC(=O)c1cccc(-c2ccc(Oc3ccc(C(F)(F)F)cc3CN3CCC(N)C3)cc2)n1` (stereo not shown) [compound 60, 6-(4-(2-((3-aminopyrrolidin-1-yl)methyl)-4-(trifluoromethyl)-phenoxy)phenyl)picolinamide], the half-maximal inhibitory concentration (IC50) was 1.85 ± 0.361 µM. The same measure for `NC(=O)c1cccc(-c2ccc(Oc3ccc(C(F)(F)F)cc3C(=O)C(=O)N3CCCC3)cc2)n1` [compound 157, 6-(4-(2-(2-oxo-2-(pyrrolidin-1-yl)acetyl)-4-(trifluoromethyl)-phenoxy)phenyl)picolinamide]: 2.71 ± 0.235 µM.

Consider `NC(=O)c1cccc(-c2ccc(Oc3ccc(C(F)(F)F)cc3CN[C@H]3CCNC3=O)cc2)n1` [compound 46, (S)-6-(4-(2-(((2-oxopyrrolidin-3-yl)amino)methyl)-4-(trifluoro-methyl)phenoxy)phenyl)picolin-amide], for which the IC50 came out at 2.58 ± 0.692 µM. Next, `NC(=O)c1cccc(-c2ccc(Oc3ccc(F)cc3)c(C(F)(F)F)c2)n1` [compound 90, 6-(4-(4-fluorophenoxy)-3-(trifluoromethyl)phenyl)picolin-amide]: more than 20 µM; `CN(Cc1cc(-c2cccc(C(N)=O)n2)ccc1Oc1ccc(F)cc1)c1ccccc1` [compound 102, 6-(4-(4-fluorophenoxy)-3-((methyl(phenyl)amino)methyl)phenyl)picolinamide]: 1.3 ± 0.126 µM; `NC(=O)c1cccc(-c2ccc(Oc3ccc(C(F)(F)F)cc3[C@@H](O)CO)cc2)n1` [compound 77, (R)-6-(4-(2-(1,2-dihydroxyethyl)-4-(trifluoromethyl)-phenoxy)phenyl)picolinamide]: 2.45 ± 0.344 µM. Next, `CCN(CC)S(=O)(=O)c1cc(C(F)(F)F)ccc1Oc1ccc(-c2cccc(C(N)=O)n2)cc1` [compound 109, 6-(4-(2-(N,N-diethylsulfamoyl)-4-(trifluoromethyl)phenoxy)phenyl)picolinamide]: 1.3 ± 0.056 µM; `CCN(CC)Cc1cc(C(F)(F)F)ccc1Oc1ccc(-c2cccc(C(N)=O)n2)cc1` [compound 118, 6-(4-(2-((diethylamino)methyl)-4-(trifluoromethyl)phenoxy)phenyl) picolinamide]: 0.118 ± 0.012 µM; `CN1CCN(Cc2cc(C(F)(F)F)ccc2Oc2ccc(-c3cccc(C(N)=O)n3)cc2)CC1` [compound 33, 6-(4-(2-((4-methylpiperazin-1-yl)methyl)-4-(trifluoromethyl)-phenoxy)phenyl)picolinamide]: 0.221 ± 0.049 µM. `NC(=O)c1cccc(-c2ccc(Oc3ccc(C(F)(F)F)c(CN4CCCC4)c3)cc2)n1` [compound 56, 6-(4-(3-(pyrrolidin-1-ylmethyl)-4-(trifluoromethyl)phenoxy)phenyl) picolinamide]: the half-inhibitory concentration (IC50) is 0.173 ± 0.033 µM. The same measure for `CCN(CC)C(C(N)=O)c1cc(C(F)(F)F)ccc1Oc1ccc(-c2cccc(C(N)=O)n2)cc1` (stereo not shown) [compound 85, 6-(4-(2-(2-amino-1-(diethylamino)-2-oxoethyl)-4-(trifluoromethyl)phenoxy)phenyl) picolinamide]: 0.561 ± 0.024 µM.

In the case of `NC(=O)c1cccc(-c2ccc(Oc3ccc(F)cc3)c(COc3ccc(F)cc3)c2)n1` [compound 104, 6-(4-(4-fluorophenoxy)-3-((4-fluorophenoxy)methyl)phenyl) picolinamide], the IC50 was more than 20 µM. As for `NC(=O)c1cccc(-c2ccc(Oc3ccc(C(F)(F)F)cc3CN3CCC(F)(F)C3)cc2)n1` [compound 45, 6-(4-(2-((3,3-difluoropyrrolidin-1-yl)methyl)-4-(trifluoromethyl)phenoxy)phenyl) picolinamide], the IC50 was 0.113 ± 0.034 µM. Next, `NC(=O)c1cccc(-c2ccc(Oc3ccc(C(F)(F)F)c(CN4CCNC(=O)C4)c3)cc2)n1` [compound 106, 6-(4-(3-((3-oxopiperazin-1-yl)methyl)-4-(trifluoromethyl)-phenoxy)phenyl)picolinamide]: 0.455 ± 0.059 µM; `NC(=O)c1cccc(-c2ccc(Oc3ccc(C(F)(F)F)cc3CN3CCCC3)cc2)n1` [compound 30, 6-(4-(2-(pyrrolidin-1-ylmethyl)-4-(trifluoromethyl)phenoxy)phenyl) picolinamide]: 0.049 ± 0.003 µM; `N#Cc1ccc(Oc2ccc(-c3cccc(C(N)=O)n3)cc2)c(-c2ccsc2)c1` [compound 19, 6-(4-(4-cyano-2-(thiophen-3-yl)phenoxy)phenyl)picolinamide]: 0.337 ± 0.006 µM.
